# Several values for one entry are separate records, joined by “and”; a condition that tells them apart may be missing. Equal entries are not always repeated. Entries after “also recorded” stand apart in the source; their conditions may differ. Where two headings read alike, the source gives them in different places.
# Columns and labels:
# [1] = system: morphine self-administration;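 also: rats trained to self-administer intravenous morphine at 500 µg/kg per infusion, first under FR1 then FR3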
# [2] = system: PKCε-dependent mechanical hyperalgesia; experiment: Hyperalgesia induced by the PKCε activator ψεRACK, Randall-Selitto paw pressure test; conditions: for Force applied that led to paw withdrawal: one paw
# Experimental: Thirty minutes later, rats were administered vehicle (5 μL, intradermally) or CP612 (1 μg/5 μL, intradermally) (Figure 3). We measured nociceptive thresholds at the same site, at baseline, 30 minutes after the administration of ψεRACK (time 0) and 15, 30, and 60 minutes after the administration of vehicle or CP612.
# Mechanical nociceptive thresholds in rats were quantified by the Randall-Selitto paw pressure test using an Ugo Basile Analgesy-Meter. This device applies a linearly increasing mechanical force to the dorsum or plantar region of the rat hind paw. The mechanical nociceptive threshold is defined as the force in grams at which a rat withdraws its paw. […] For studies testing nociceptive thresholds after the PKCε activator ψεRACK, or after the cancer chemotherapeutic drug paclitaxel, rats were placed into cylindrical acrylic restrainers for 40 minutes before starting each session. The restrainers had lateral ports to allow access to the hind paw, as previously described ([35]), and pain thresholds were measured by applying force to the dorsum of the hind paw. Prior to starting experiments, baseline mechanical nociceptive threshold was obtained as the mean of 2–3 readings on 1 hind paw in each rat.
# PKCη = target: T1, PKCη (Homo sapiens, UniProt P24723); experiment: scanMax kinome panel, PKCη; format: binding; conditions: 200 nM CP612; read-out: scanMax % of control, PKCη
# T1 construct: purchased Eurofins-DiscoverX
# Experimental: (§1) CP612 was screened for kinome specificity at 200 nM against 468 kinases using the scanMax assay panel from Eurofins-DiscoverX. CP612 inhibited 10 other WT kinases besides PKCε, all to < 10% of control: CLK1 (CDC Like Kinase 1), CLK4, PKN1 (Protein kinase N1), PKN2, PKCδ, PKCη, PKCθ, PRKG2 (Protein Kinase CGMP-Dependent 2), ROCK1, and ROCK2.
# PKN2 = target: T2, PKN2 (Homo sapiens, UniProt Q16513); experiment: scanMax kinome panel, PKN2; format: binding; conditions: 200 nM CP612
# T2 construct: purchased Eurofins-DiscoverX
# Experimental: as §1
# PKCθ = PKCθ (Homo sapiens, UniProt Q04759); experiment: scanMax kinome panel, PKCθ; format: binding; set-up: purchased Eurofins-DiscoverX; conditions: 200 nM CP612; read-out: scanMax % of control, PKCθ
# Experimental: as §1
# T1 sequence (P24723 whole entry): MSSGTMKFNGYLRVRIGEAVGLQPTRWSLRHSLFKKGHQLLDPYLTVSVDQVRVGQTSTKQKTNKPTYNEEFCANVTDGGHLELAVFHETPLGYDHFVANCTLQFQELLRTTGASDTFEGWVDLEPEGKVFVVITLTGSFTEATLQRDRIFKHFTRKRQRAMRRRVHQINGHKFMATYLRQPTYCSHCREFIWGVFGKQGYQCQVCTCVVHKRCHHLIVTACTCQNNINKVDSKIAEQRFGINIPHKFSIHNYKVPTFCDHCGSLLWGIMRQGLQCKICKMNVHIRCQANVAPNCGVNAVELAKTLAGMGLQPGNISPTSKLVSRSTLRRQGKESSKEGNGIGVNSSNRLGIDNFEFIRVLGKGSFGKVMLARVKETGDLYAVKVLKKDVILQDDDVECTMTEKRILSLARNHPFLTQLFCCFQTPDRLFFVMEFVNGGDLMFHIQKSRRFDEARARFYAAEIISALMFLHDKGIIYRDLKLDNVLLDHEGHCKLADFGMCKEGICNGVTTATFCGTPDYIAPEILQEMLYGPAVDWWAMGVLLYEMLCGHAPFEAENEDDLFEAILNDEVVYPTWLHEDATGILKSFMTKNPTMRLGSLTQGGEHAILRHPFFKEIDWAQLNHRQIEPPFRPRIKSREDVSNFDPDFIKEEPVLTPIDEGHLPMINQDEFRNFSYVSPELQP
# T2 sequence (Q16513 whole entry): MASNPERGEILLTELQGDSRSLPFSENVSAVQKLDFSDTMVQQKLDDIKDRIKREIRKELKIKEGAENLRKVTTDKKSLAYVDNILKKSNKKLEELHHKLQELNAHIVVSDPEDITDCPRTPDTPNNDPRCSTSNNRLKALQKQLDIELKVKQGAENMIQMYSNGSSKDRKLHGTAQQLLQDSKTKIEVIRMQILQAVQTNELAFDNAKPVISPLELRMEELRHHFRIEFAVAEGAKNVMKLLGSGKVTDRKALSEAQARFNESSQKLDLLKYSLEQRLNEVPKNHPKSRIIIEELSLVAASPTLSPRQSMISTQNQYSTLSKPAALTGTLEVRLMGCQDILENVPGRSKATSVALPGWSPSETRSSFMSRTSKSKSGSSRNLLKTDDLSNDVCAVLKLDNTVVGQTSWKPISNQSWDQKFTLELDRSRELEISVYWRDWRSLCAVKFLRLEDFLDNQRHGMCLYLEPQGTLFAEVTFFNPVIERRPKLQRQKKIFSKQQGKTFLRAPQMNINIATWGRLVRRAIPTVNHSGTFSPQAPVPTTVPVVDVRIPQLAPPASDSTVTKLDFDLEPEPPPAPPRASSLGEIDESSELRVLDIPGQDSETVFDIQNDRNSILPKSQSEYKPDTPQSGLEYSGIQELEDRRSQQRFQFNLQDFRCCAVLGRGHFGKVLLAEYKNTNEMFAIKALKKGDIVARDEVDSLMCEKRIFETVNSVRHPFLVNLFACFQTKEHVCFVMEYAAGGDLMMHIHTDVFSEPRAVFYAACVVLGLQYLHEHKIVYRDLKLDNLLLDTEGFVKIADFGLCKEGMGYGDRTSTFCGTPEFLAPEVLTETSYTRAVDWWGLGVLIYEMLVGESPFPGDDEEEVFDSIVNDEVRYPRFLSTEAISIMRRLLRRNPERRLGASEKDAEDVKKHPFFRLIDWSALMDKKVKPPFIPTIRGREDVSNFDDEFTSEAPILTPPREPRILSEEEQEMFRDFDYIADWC
# PKCθ, sequence (Q04759 whole entry): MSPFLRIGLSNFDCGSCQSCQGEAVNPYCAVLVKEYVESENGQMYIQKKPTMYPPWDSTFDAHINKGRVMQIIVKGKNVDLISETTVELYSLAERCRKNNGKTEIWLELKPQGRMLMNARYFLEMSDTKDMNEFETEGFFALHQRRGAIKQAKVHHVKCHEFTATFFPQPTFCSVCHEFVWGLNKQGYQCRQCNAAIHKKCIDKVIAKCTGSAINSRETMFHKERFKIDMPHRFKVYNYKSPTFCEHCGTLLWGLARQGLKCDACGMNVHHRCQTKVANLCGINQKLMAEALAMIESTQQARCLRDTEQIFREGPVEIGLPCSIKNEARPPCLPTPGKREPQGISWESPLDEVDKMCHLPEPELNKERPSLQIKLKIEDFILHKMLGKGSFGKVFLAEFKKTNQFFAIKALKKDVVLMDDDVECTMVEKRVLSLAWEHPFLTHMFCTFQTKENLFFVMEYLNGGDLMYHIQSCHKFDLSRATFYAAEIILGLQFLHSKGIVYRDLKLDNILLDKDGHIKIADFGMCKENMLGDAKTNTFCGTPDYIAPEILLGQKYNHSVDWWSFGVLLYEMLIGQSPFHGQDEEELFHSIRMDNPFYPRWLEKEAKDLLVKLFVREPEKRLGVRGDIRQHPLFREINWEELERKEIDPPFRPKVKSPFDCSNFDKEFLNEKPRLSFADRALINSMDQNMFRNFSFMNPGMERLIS
compound,measurement,setting,value
N[C@H](CNC(=O)C1(c2ccc(Cl)cc2)CCCC1)c1ccc(C(=O)Nc2ccncc2)cc1 [CP612],D10 BP (PR1),"[1]; BP, Day 10, progressive ratio PR1, CP612 6 hours prior, group mean, n=7",25.57
same,D12 BP (PR2_WD),"[1]; BP, Day 12, progressive ratio PR2 withdrawal, CP612 6 hours prior, group mean, n=6",21.67
same,D13 BP (PR3_Nal),"[1]; BP, Day 13, progressive ratio PR3_Nal, CP612 6 hours prior, group mean, n=7",17.57
same,D12 BP (PR2_WD),"[1]; BP, PR2_WD, day 12, individual rats",40 and 15 and 20
same,Effect on morphine intake or responding (infusions and breaking point),"[1]; CP612 30 mg/kg i.p. 6 hours prior, progressive ratio tests 1-3",did not modify morphine intake or responding
same,D1 AH (FR1),"[1]; active hole responses, Day 1, fixed ratio 1, mean of CP612 group, n=7",16.14
same,D2 AH (FR1),"[1]; active hole responses, Day 2, fixed ratio 1, mean of CP612 group, n=7",13.86
same,D3 AH (FR1),"[1]; active hole responses, Day 3, fixed ratio 1, mean of CP612 group, n=7",16.29
same,D4 AH (FR1),"[1]; active hole responses, Day 4, fixed ratio 1, mean of CP612 group, n=7",14.57
same,D4 AH (FR3),"[1]; active hole responses, Day 4, fixed ratio 3, mean of CP612 group, n=7",14.57
same,D5 AH (FR3),"[1]; active hole responses, Day 5, fixed ratio 3, mean of CP612 group, n=7",25.86
same,D6 AH (FR3),"[1]; active hole responses, Day 6, fixed ratio 3, mean of CP612 group, n=7",25.71
same,D7 AH (FR3),"[1]; active hole responses, Day 7, fixed ratio 3, mean of CP612 group, n=7",27.86
same,D8 AH (FR3),"[1]; active hole responses, Day 8, fixed ratio 3, mean of CP612 group, n=7",35.00
same,D9 AH (FR3),"[1]; active hole responses, Day 9, fixed ratio 3, mean of CP612 group, n=7",37.86
same,D10 AH (PR1),"[1]; active hole responses, Day 10, PR1, CP612 6 hours prior, group mean, n=7",119.00
same,D12 AH (PR2_WD),"[1]; active hole responses, Day 12, PR2 withdrawal, CP612 6 hours prior, group mean, n=6",99.33
same,D13 AH (PR3_Nal),"[1]; active hole responses, Day 13, PR3_Nal, CP612 6 hours prior, group mean, n=7",78.29
same,AH (avg all),"[1]; active hole responses, average of all days D1-D9, mean of CP612 group, n=7",23.68
same,AH (avg last 3 days),"[1]; active hole responses, average of last 3 days, mean of CP612 group, n=7",33.57
same,D1 IH (FR1),"[1]; inactive hole responses, Day 1, fixed ratio 1, mean of CP612 group, n=7",7.43
same,D2 IH (FR1),"[1]; inactive hole responses, Day 2, fixed ratio 1, mean of CP612 group, n=7",12.14
same,D3 IH (FR1),"[1]; inactive hole responses, Day 3, fixed ratio 1, mean of CP612 group, n=7",12.43
same,D4 IH (FR1),"[1]; inactive hole responses, Day 4, fixed ratio 1, mean of CP612 group, n=7",8.71
same,D4 IH (FR3),"[1]; inactive hole responses, Day 4, fixed ratio 3, mean of CP612 group, n=7",8.71
same,D5 IH (FR3),"[1]; inactive hole responses, Day 5, fixed ratio 3, mean of CP612 group, n=7",13.86
same,D6 IH (FR3),"[1]; inactive hole responses, Day 6, fixed ratio 3, mean of CP612 group, n=7",7.43
same,D7 IH (FR3),"[1]; inactive hole responses, Day 7, fixed ratio 3, mean of CP612 group, n=7",4.57
same,D8 IH (FR3),"[1]; inactive hole responses, Day 8, fixed ratio 3, mean of CP612 group, n=7",6.43
same,D9 IH (FR3),"[1]; inactive hole responses, Day 9, fixed ratio 3, mean of CP612 group, n=7",5.57
same,D10 IH (PR1),"[1]; inactive hole responses, Day 10, PR1, CP612 6 hours prior, group mean, n=7",13.00
same,D12 IH (PR2_WD),"[1]; inactive hole responses, Day 12, PR2 withdrawal, CP612 6 hours prior, group mean, n=6",10.67
same,D13 IH (PR3_Nal),"[1]; inactive hole responses, Day 13, PR3_Nal, CP612 6 hours prior, group mean, n=7",8.86
same,D9 IH (avg all),"[1]; inactive hole responses, average of all days D1-D9, mean of CP612 group, n=7",8.73
same,D9 IH (avg last 3 days),"[1]; inactive hole responses, average of last 3 days, mean of CP612 group, n=7",5.52
same,D10 AH (PR1) Log,"[1]; log of active hole responses, Day 10, PR1, CP612 6 hours prior, group mean, n=7",2.04
same,D12 AH (PR2_WD) Log,"[1]; log of active hole responses, Day 12, PR2 withdrawal, CP612 6 hours prior, group mean, n=6",1.94
same,D13 AH (PR3_Nal) Log,"[1]; log of active hole responses, Day 13, PR3_Nal, CP612 6 hours prior, group mean, n=7",1.85
same,D10 IH (PR1) Log,"[1]; log of inactive hole responses, Day 10, PR1, CP612 6 hours prior, group mean, n=7",1.03
same,D12 IH (PR2_WD) Log,"[1]; log of inactive hole responses, Day 12, PR2 withdrawal, CP612 6 hours prior, group mean, n=6",0.89
same,D13 IH (PR3_Nal) Log,"[1]; log of inactive hole responses, Day 13, PR3_Nal, CP612 6 hours prior, group mean, n=7",0.88
same,D10 Inf (PR1) Log,"[1]; log of infusions, Day 10, PR1, CP612 6 hours prior, group mean, n=7",0.94
same,D12 Inf (PR2_WD) Log,"[1]; log of infusions, Day 12, PR2 withdrawal, CP612 6 hours prior, group mean, n=6",0.91
same,D13 Inf (PR3_Nal) Log,"[1]; log of infusions, Day 13, PR3_Nal, CP612 6 hours prior, group mean, n=7",0.85
same,D12 Inf (PR2_WD) Log,"[1]; log of infusions, PR2_WD, day 12, individual rats",1.04 and 0.85 and 0.90
same,D10 Latency (PR1) Log,"[1]; log of latency, Day 10, PR1, CP612 6 hours prior, group mean, n=7",-0.40
same,D12 Latency (PR2_WD) Log,"[1]; log of latency, Day 12, PR2 withdrawal, CP612 6 hours prior, group mean, n=6",-0.00262
same,D13 Latency (PR3_Nal) Log,"[1]; log of latency, Day 13, PR3_Nal, CP612 6 hours prior, group mean, n=7",-0.48
same,D2 Inf (FR1),"[1]; morphine infusions, Day 2, fixed ratio 1, mean of CP612 group, n=7",10.71
same,D3 Inf (FR1),"[1]; morphine infusions, Day 3, fixed ratio 1, mean of CP612 group, n=7",10.86
same,D4 Inf (FR1),"[1]; morphine infusions, Day 4, fixed ratio 1, mean of CP612 group, n=7",11.00
same,D4 Inf (FR3),"[1]; morphine infusions, Day 4, fixed ratio 3, mean of CP612 group, n=7",11.00
same,D5 Inf (FR3),"[1]; morphine infusions, Day 5, fixed ratio 3, mean of CP612 group, n=7",6.43
same,D6 Inf (FR3),"[1]; morphine infusions, Day 6, fixed ratio 3, mean of CP612 group, n=7",7.14
same,D7 Inf (FR3),"[1]; morphine infusions, Day 7, fixed ratio 3, mean of CP612 group, n=7",7.71
same,D8 Inf (FR3),"[1]; morphine infusions, Day 8, fixed ratio 3, mean of CP612 group, n=7",9.57
same,D9 Inf (FR3),"[1]; morphine infusions, Day 9, fixed ratio 3, mean of CP612 group, n=7",10.29
same,D10 Inf (PR1),"[1]; morphine infusions, Day 10, progressive ratio test PR1, CP612 6 hours prior, group mean, n=7",8.86
same,D12 Inf (PR2_WD),"[1]; morphine infusions, Day 12, progressive ratio test PR2 in withdrawal, CP612 6 hours prior, group mean, n=6",8.17
same,D13 Inf (PR3_Nal),"[1]; morphine infusions, Day 13, progressive ratio test PR3_Nal, CP612 6 hours prior, group mean, n=7",7.29
same,Inf (avg all),"[1]; morphine infusions, average of all self-administration days D1-D9, mean of CP612 group, n=7",9.33
same,Inf (avg last 3 days),"[1]; morphine infusions, average of last 3 days, mean of CP612 group, n=7",9.19
same,D12 Inf (PR2_WD),"[1]; morphine infusions, progressive ratio session PR2_WD, day 12, individual rats",11 and 7 and 8
same,D1 Inf (FR1),"[1]; morphine infusions, self-administration Day 1, fixed ratio 1, mean of CP612 group, n=7",10.29
same,D1 Latency (FR1),"[1]; time to first infusion, Day 1, fixed ratio 1, mean of CP612 group, n=7",3.00 min
same,D2 Latency (FR1),"[1]; time to first infusion, Day 2, fixed ratio 1, mean of CP612 group, n=7",1.98 min
same,D3 Latency (FR1),"[1]; time to first infusion, Day 3, fixed ratio 1, mean of CP612 group, n=7",0.73 min
same,D4 Latency (FR3),"[1]; time to first infusion, Day 4, fixed ratio 3, mean of CP612 group, n=7",0.44 min
same,D5 Latency (FR3),"[1]; time to first infusion, Day 5, fixed ratio 3, mean of CP612 group, n=7",0.20 min
same,D6 Latency (FR3),"[1]; time to first infusion, Day 6, fixed ratio 3, mean of CP612 group, n=7",0.53 min
same,D7 Latency (FR3),"[1]; time to first infusion, Day 7, fixed ratio 3, mean of CP612 group, n=7",0.53 min
same,D8 Latency (FR3),"[1]; time to first infusion, Day 8, fixed ratio 3, mean of CP612 group, n=7",0.46 min
same,D9 Latency (FR3),"[1]; time to first infusion, Day 9, fixed ratio 3, mean of CP612 group, n=7",0.44 min
same,D10 Latency (PR1),"[1]; time to first infusion, Day 10, PR1, CP612 6 hours prior, group mean, n=7",0.60 min
same,D12 Latency (PR2_WD),"[1]; time to first infusion, Day 12, PR2 withdrawal, CP612 6 hours prior, group mean, n=6",1.44 min
same,D13 Latency (PR3_Nal),"[1]; time to first infusion, Day 13, PR3_Nal, CP612 6 hours prior, group mean, n=7",0.75 min
same,D9 Latency (avg all),"[1]; time to first infusion, average of all days D1-D9, mean of CP612 group, n=7",0.92 min
same,D9 Latency (avg last 3 days),"[1]; time to first infusion, average of last 3 days, mean of CP612 group, n=7",0.48 min
same,Force applied that led to paw withdrawal,"[2]; 0min (30 min after ψεRACK, before CP612)",90 grams and 100 grams and 96.7 grams
same,Force applied that led to paw withdrawal,[2]; 5min after CP612 1µg/5µL intradermally,120 grams and 130 grams and 115 grams and 105 grams
same,Force applied that led to paw withdrawal,[2]; 10min after CP612 1µg/5µL intradermally,100 grams and 110 grams and 130 grams and 115 grams and 120 grams and 135 grams
same,Force applied that led to paw withdrawal,[2]; 15min after CP612 1µg/5µL intradermally,90 grams and 125 grams and 130 grams and 110 grams and 115 grams and 100 grams
same,Force applied that led to paw withdrawal,[2]; 30min after CP612 1µg/5µL intradermally,120 grams and 123.3 grams and 125 grams and 115 grams
same,Force applied that led to paw withdrawal,[2]; 60min after CP612 1µg/5µL intradermally,105 grams and 110 grams and 115 grams and 130 grams and 120 grams
same,Force applied that led to paw withdrawal,[2]; baseline (before ψεRACK and CP612),130 grams and 120 grams and 125 grams
same,Effect on ψεRACK-induced hyperalgesia,"[2]; male rats, CP612 1 μg/5 μL intradermally 30 min after ψεRACK, up to 60 minutes",reduced; also recorded: near-complete reversal; also recorded: attenuated
same,remaining binding at 0.2 µM,PKCη,< 10%
same,"scanMax % of control, PKN2",PKN2,< 10 % of control
same,remaining binding at 0.2 µM,PKCθ,< 10%
